In patent publication US12139542B2, “Inhibitors of aortic carboxypeptidase-like protein (ACLP)” (TRUSTEES OF BOSTON UNIVERSITY, priority 2014, dated 2024):

Tested on: ACLP
Assay: siRNA knockdown of ACLP in differentiating primary lung fibroblasts (Western blot)
Type: cell-based, mouse
Settings: primary lung fibroblasts transfected day 1 post-isolation, 2 nM siRNA, vs NTC siRNA
Experimental: siRNA. Differentiating primary lung fibroblasts were transfected with 2 nM small interfering RNA (siRNA) targeting ACLP (Dharmacon) ([…]) (SEQ ID NO: 5) on either day 1 or day 2 post-isolation. Fully differentiated primary lung myofibroblasts were transfected at passage 2 or 3 with 2 nM siRNA targeting ACLP. Non-targeting control (NTC) siRNA ([…], […], […], […]) (SEQ ID NO: 6) was used as a control in all experiments. Transfections were performed using RNAiMAX (Invitrogen) according to manufacturer's instructions.
Knockdown of ACLP slows and partially reverts the fibroblast to myofibroblast transition. To determine if ACLP was required for fibroblast to myofibroblast differentiation, siRNA was used to knockdown ACLP expression during myofibroblast differentiation. Freshly isolated wildtype primary lung fibroblasts were transfected on day 1 post-isolation with siRNA targeting ACLP (FIG. 2B) (3).

GGCUCAAGAUCUACGCAAU (listed as RNA, chemistry not given here) [ACLP siRNA, small interfering RNA targeting mouse ACLP (Dharmacon)]
reduction in ACLP protein expression: 68%
reduction of Collagen I levels: 5%
reduction in SMA protein expression (statistically significant): 63%
